Reference: PubChem BioAssay (NCI)
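Five concentrations, 48 hours, 96-well plates. TGI: concentration producing complete growth inhibition.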 Where a SMILES comes first, the peptide text is derived from it. [ ]: non-standard residue; d: D form. The star is where a group is joined. Bn2Val = CC(C)[C@@H](C(=O)*)N(Cc1ccccc1)Cc1ccccc1; NHPiperonyl = c1cc2c(cc1CN*)OCO2; NMeV = CN[C@H](C(=O)O)C(C)C; dNMeA = CN[C@H](C)C(=O)O

Tests used:
Assay in all cases: NCI anticancer screen, dose series, 48 h
[1] = test system: HCC-2998 colon
[2] = test system: NCI/ADR-RES ovarian
[3] = test system: RPMI-8226 leukemia
[4] = test system: U251 CNS
[5] = test system: OVCAR-3 ovarian
[6] = test system: IGROV1 ovarian
[7] = test system: SK-MEL-28 melanoma
[8] = test system: ACHN renal
[9] = test system: SF-268 CNS
[10] = test system: MDA-N
[11] = test system: RXF 393 renal
[12] = test system: HOP-62 NSCLC
[13] = test system: SN12C renal
[14] = test system: NCI-H226 lung
[15] = test system: HS 578T breast
[16] = test system: SF-539 CNS
[17] = test system: A498 renal
[18] = test system: LOX IMVI melanoma
[19] = test system: SNB-19 CNS
[20] = test system: MALME-3M melanoma

SMILES | TGI [1] | TGI [2] | TGI [3] | TGI [4] | TGI [5] | TGI [6] | TGI [7] | TGI [8] | TGI [9] | TGI [10] | TGI [11] | TGI [12] | TGI [13] | TGI [14] | TGI [15] | TGI [16] | TGI [17] | TGI [18] | TGI [19] | TGI [20]
CC(=O)Oc1c(C)cc2c(c1C)C(C)(C)CN2C(=O)C(C)(C)C | > 100 µM | > 100 µM | > 100 µM | > 100 µM | > 100 µM | > 100 µM | > 100 µM | > 100 µM | > 100 µM | > 100 µM | > 100 µM | > 100 µM | > 100 µM | > 100 µM | > 100 µM | > 100 µM | > 100 µM | > 100 µM | > 100 µM | –
CC(C)[C@H](NC(=O)[C@H](C(C)C)N(Cc1ccccc1)Cc1ccccc1)C(=O)N(C)[C@H](C(=O)N1CCC[C@H]1C(=O)N(C)[C@H](C)C(=O)NCc1ccc2c(c1)OCO2)C(C)C (Bn2Val-V[NMeV]P[dNMeA]-NHPiperonyl) | 37.1 µM | > 100 µM | 6.2 µM | 43 µM | 57.9 µM | > 100 µM | > 100 µM | > 100 µM | > 74.5 µM | 49.4 µM | – | > 100 µM | – | > 100 µM | > 100 µM | 11.5 µM | – | > 100 µM | > 100 µM | > 65.3 µM
COc1cccc([C@@H]2C/C(=N\NC(=O)C(=O)N[C@@H](C)c3ccccc3)c3cc4c(cc3N2)OCO4)c1 | > 100 µM | > 100 µM | > 100 µM | > 100 µM | > 100 µM | – | > 100 µM | > 100 µM | > 100 µM | 28.4 µM | > 100 µM | > 100 µM | > 100 µM | > 100 µM | > 100 µM | > 100 µM | > 100 µM | > 100 µM | > 100 µM | –
C=C1CC(COc2ccc3c(C)c(Cl)c(=O)oc3c2)(c2ccccc2)OC1=O (stereo not drawn) | 3.59 µM | 11.4 µM | 1.42 µM | 20.4 µM | 6.71 µM | 3.89 µM | 6.43 µM | 6.04 µM | 19 µM | 5.48 µM | – | 20.3 µM | 20.1 µM | 8.01 µM | 17.5 µM | 7.34 µM | 25.7 µM | 2.82 µM | 29.7 µM | 3.75 µM
Cc1cccc(-c2cccc(COCc3cccc(-c4cccc(CO)n4)n3)n2)n1 | > 50 µM | > 50 µM | > 50 µM | > 50 µM | > 50 µM | > 50 µM | > 50 µM | > 50 µM | > 50 µM | > 50 µM | – | > 50 µM | > 50 µM | > 50 µM | > 50 µM | > 50 µM | > 50 µM | > 50 µM | > 50 µM | –
CCOC(=O)CC[C@H](NC(=O)c1ccc(CNc2nc3cc(C(F)(F)F)ccc3nc2C(=O)OCC)cc1)C(=O)OCC | – | > 100 µM | > 100 µM | 18.5 µM | > 53.2 µM | > 53.4 µM | > 100 µM | > 93.2 µM | 34.4 µM | > 100 µM | > 100 µM | > 46 µM | > 100 µM | – | 19.7 µM | 17.3 µM | > 100 µM | > 100 µM | 25.4 µM | 50.3 µM
CCCCCCCCCCCCCCC(C(=O)[O-])[n+]1ccccc1 (stereo not drawn) | > 100 µM | > 100 µM | > 100 µM | > 100 µM | > 100 µM | > 100 µM | > 100 µM | > 100 µM | > 100 µM | > 100 µM | 74.7 µM | > 100 µM | > 100 µM | > 100 µM | > 100 µM | > 100 µM | > 100 µM | > 100 µM | > 100 µM | –
O=P1(N(CCCl)CCCl)Oc2c(Cl)cc(Cl)c(Cl)c2Cc2c(Cl)c(Cl)cc(Cl)c2O1 | > 100 µM | > 100 µM | > 100 µM | > 100 µM | > 100 µM | – | > 100 µM | > 100 µM | > 100 µM | > 100 µM | > 100 µM | > 100 µM | > 100 µM | > 100 µM | > 100 µM | > 100 µM | > 100 µM | > 100 µM | – | –
O=C(c1ccc(-c2ccccc2)cc1)N(Cc1cccnc1)C(=S)N(Cc1cccnc1)C(=O)c1ccc(-c2ccccc2)cc1 | > 100 µM | > 100 µM | 72.4 µM | > 100 µM | > 100 µM | – | > 100 µM | > 100 µM | > 100 µM | > 100 µM | – | > 100 µM | > 100 µM | > 100 µM | > 100 µM | > 100 µM | > 100 µM | > 100 µM | > 100 µM | > 100 µM
COc1ccc(OC)c2sc(N3C(=O)/C(=C/c4ccc(SC)cc4)N=C3c3ccccc3)nc12 | > 100 µM | 89.9 µM | 63.3 µM | 32.3 µM | 53.6 µM | > 100 µM | > 100 µM | 86.6 µM | 88.1 µM | 42.5 µM | – | 40 µM | 70.2 µM | – | 60.8 µM | 58.7 µM | > 100 µM | 64.4 µM | 68.5 µM | –
O=S(=O)(Nc1nc2ccccc2nc1Nc1cccc2ccccc12)c1ccccc1 | > 100 µM | > 100 µM | > 100 µM | 30 µM | > 100 µM | > 100 µM | > 100 µM | > 100 µM | > 100 µM | > 100 µM | 78.9 µM | 33 µM | > 100 µM | > 100 µM | 95.2 µM | > 100 µM | – | > 100 µM | 61.2 µM | > 100 µM
N=C1/C(=C/c2ccco2)C(=O)N=C2SC=NN12 | > 100 µM | > 100 µM | > 100 µM | > 100 µM | > 100 µM | > 100 µM | > 100 µM | > 100 µM | > 100 µM | > 100 µM | > 100 µM | > 100 µM | > 100 µM | > 100 µM | > 100 µM | > 100 µM | – | > 100 µM | > 100 µM | > 100 µM
